Assay: Fluoroscopic video-radiography of taking a barium-filled No. 2 capsule, mouth to stomach
Format: in vivo
Settings: patient with difficulty in swallowing; barium-filled No. 2 capsule with about 20 ml of drink
Procedure: First, the purpose of this test was explained to a patient (the person) who had difficulty in swallowing when taking medicines with water, and their consent was acquired.
Next, barium powder was filled up in a No. 2 capsule and the capsule was used as a placebo. The placebo was taken by the patient with about 20 ml of the swallowing-assistive drink of the present invention, while fluoroscopic video-radiographs of the conditions of taking this medicine were taken by scanning from the mouth to the stomach of the patient. The image information obtained was put into a personal computer and the time-course changes were analyzed as still image data of two sheets a second.

## O [water]
  time to move from the mouth to the stomach: about 18 sec
